Our source for the minimal effective concentration, melting point and EC200 values is patent publication US7659267B2, “1,3-Benzothiazinone derivatives, process for producing the same use thereof” (Takeda Pharmaceutical Company Limited, priority 2002, dated 2010).

Data set [1] concerns primary cardiomyocytes from newborn rats. The data set can be described thus: Cardiomyocyte apoptosis inhibitory activity (serum-free culture, viable cell number by WST-8). It counts as cell-based. The following applies: Rattus norvegicus, 96 h, mean of three independent experiments, concentration required to increase the mean viable cell number by 50% vs. no test compound, serum-free Medium 199, 4 days, read-out: Minimum Effective Concentration. The text has this: Cardiomyocyte Apoptosis Inhibitory Activity
Newborn rats (within 1 day after birth) were obtained from pregnant Wistar rats purchased from Charles River Japan, Inc., anesthetized under ether, and sterilized with 70% ethanol. Then the heart was excised with tweezers. The excised heart was washed with a phosphate buffered saline (T900; manufactured by Takara) and cut into pieces with surgical scissors. The tissue pieces were washed 4 to 5 times with a phosphate buffered saline to remove a majority of blood-derived non-myocardial cells. To the tissue pieces derived from 10 newborns, 5 ml of enzyme solution [solution prepared by dissolving trypsin (1.25 mg)(manufactured by Difco) and collagenase (0.25 mg)(manufactured by Sigma) in phosphate buffered saline (PBS)(1 ml)] was added and the mixture was stirred with a stirrer for 15 minutes while maintaining at 37° C. After 2.5 ml of the enzyme solution was added thereto, the mixture was stirred for further 15 minutes. This procedure was repeated twice. Subsequently, Medium 199 (manufactured by Gibson) containing 10% fetal calf serum (manufactured by Biowiker) was added in a half volume of the enzyme solution to terminate the enzyme reaction. The cells were filtered through a cell strainer (manufactured by Falcon) and then centrifuged at 400×g for 5 minutes to collect the cells.
The cells thus collected from the 10 newborns were suspended in 50 ml of Medium 199 containing 10% fetal calf serum. The suspension was plated onto 100 mm Petri dishes (manufactured by Iwaki) in a volume of 10 ml each/dish and cultured for 1 hour in a CO2 incubator set at 5% CO2 and 37° C. The cells were then recovered, filtered through a cell strainer and centrifuged at 400×g for 5 minutes to collect the primary cardiomyocytes derived from the newborn rats.
Then, the cardiomyocytes from the newborn rats (10) were suspended in 2 ml of hypotonic solution [prepared by dissolving NH4Cl (8.29 g), KHCO3 (1.0 g), 37 mg of EDTA/2Na (disodium ethylenediaminetetraacetate)(manufactured by Dojin Chemical Laboratory) in water (1 L)] and the suspension was allowed to stand for 3 minutes to disrupt erythrocytes. After 10 ml of Medium 199 containing 10% fetal calf serum was added thereto, the mixture was centrifuged at 400×g for 5 minutes to collect the primary cardiomyocytes from newborn rats. The cells were suspended in Medium 199 containing 10% fetal calf serum. The suspension was then filtered through a cell strainer. An aliquot of the resulting cardiomyocyte suspension was taken and 0.3% trypan blue was added thereto. The mixture was mildly mixed and the number of cardiomyocytes was counted with a hemocytometer.
The primary cardiomyocytes from the newborn rats were suspended at a density of 3×10^6 cells/ml in Medium 199 containing 10% fetal calf serum. The suspension was plated onto a 96-well plate in a volume of 0.1 ml/well, followed by incubation in a CO2 incubator set at 5% CO2 and 37° C. for a day. After the plate was stirred with a micromixer (manufactured by Taiyo Kagaku Kogyo), the medium was exchanged 3 times with serum-free Medium 199 and then test compounds were added thereto. The cells were cultured for further 4 days to induce apoptosis. Subsequently, fetal calf serum was added thereto at a concentration of 10%, and the cells were further cultured for about 17 hours in a CO2 incubator set at 5% CO2 and 37° C. The number of viable cells was determined with Cell Counting Kit (manufactured by Dojin Chemical Laboratory) using as a chromogen WST-8 [2-(2-methoxy-4-nitrophenyl)3-(4-nitrophenyl)-5-(2,4-disulfophenyl)-2H-tetrazolium, monosodium salt] to assess the cardiomyocyte apoptosis inhibitory activity.
The experiment described above was triplicated in an independent manner.
In the TABLE, the minimum effective concentration is defined as the concentration of the test compound required to increase the mean viable cell number by 50% as compared to that in the absence of any test compound.
(In general: Tetrazolium assays rely on reduction of a dye to a coloured formazan, in cell work by metabolically active cells.)

Data set [2] deals with antioxidant response element (ARE) of rat glutathione S-transferase Ya subunit gene in Rat H9c2 cells. The data set can be described thus: Antioxidant response element (ARE)-dependent transcriptional activation activity (luciferase reporter). The following applies: concentration causing luminescence of 200% of test compound-free group (100%); H9c2 cells with pGL3-ARE reporter, about 24 hours. It is filed as cell-based. The text has this:
Antioxidant Response Element (ARE)-dependent Transcriptional Activation Activity
(1) Construction of Luciferase Reporter Vector Bearing Antioxidant Response Element (ARE)
ARE-containing luciferase reporter vectors pGL3-ARE and pGL3-ARE 694G were constructed based on The Journal of Biological Chemistry, 266, 11632, 1991 and The Journal of Biological Chemistry, 275, 40134, 2000, by synthesizing ARE (SEQ ID NO: 1) for rat glutathione S-transferase Ya subunit gene and mutated ARE, i.e., mutant ARE (A694G)(SEQ ID NO: 2) oligonucleotide and then transfecting them to the NheI/BglII site of pGL3-Promoter Vector (manufactured by Promega Corp.), respectively.
(2) Assay for Antioxidant Response Element (ARE)-dependent Transcriptional Activation Activity
Rat H9c2 cells were suspended in Dulbecco's modified Eagle's medium (10% FBS, D-MEM medium) containing […] heat-inactivated fetal calf serum in 7×10^4 cells/ml. […] After allowing to stand for 30 minutes, fluorescence levels by luciferase were determined using a WALLAC ARVO SX (manufactured by Perkin-Elmer). Taking the emitted luminescence of test compound-free group as 100%, the ARE-dependent transcriptional activation was shown in terms of the concentration of test compound, which caused to emit the luminescence of 200% (EC200: μM).
A general note: Reporter assays use an easily measured gene product as a stand-in for the process of interest.

`O=c1nc(C2CC2)sc2ccccc12` [Example 1, 2-Cyclopropyl-4H-1,3-benzothiazin-4-one] registered a melting point of 119.5 to 119.6 °C. The minimal effective concentration in data set [1] amounted to 0.072 µM. The compound `O=C1NC(=C2CCC2)Sc2ccccc21` [Example 2, 2-Cyclobutylidene-2,3-dihydro-4H-1,3-benzothiazin-4-one] showed a melting point of 146.7 to 149.4 °C. In addition, in data set [1], the minimal effective concentration stood at 0.02 µM.

`O=C1NC(=C2CCCC2)Sc2ccccc21` [Example 3, 2-Cyclopentylidene-2,3-dihydro-4H-1,3-benzothiazin-4-one] came in with a melting point of 190.4 to 191.4 °C. Besides, the minimal effective concentration in data set [1] was 0.047 µM. Take `O=C1NC(=C2CCCCC2)Sc2ccccc21` [Example 4, 2-Cyclohexylidene-2,3-dihydro-4H-1,3-benzothiazin-4-one]: the melting point lay in the range of 145.6 to 147.1 °C. Moreover, in data set [1], the minimal effective concentration is 0.042 µM. As for `CC(C)=C1NC(=O)c2ccccc2S1` [Example 5, 2-Isopropylidene-2,3-dihydro-4H-1,3-benzothiazin-4-one], the melting point is 187.1 to 188.3 °C. On the same count and under the same terms, as for `O=C(O)CCc1cccc(-c2nc(=O)c3ccccc3s2)c1` [Example 7, 3-[3-(4-Oxo-4H-1,3-benzothiazin-2-yl)phenyl]propionic acid], the figure is 179.8 to 180.2 °C. As to `N#Cc1cccc(-c2nc(=O)c3ccccc3s2)c1` [Example 8, 2-(3-Cyanophenyl)-4H-1,3-benzothiazin-4-one], the melting point was in the range of 199.6 to 199.7 °C. Moreover, in data set [1], the minimal effective concentration stood at 0.025 µM. Compound `O=c1nc(-c2ccc(C(F)(F)F)cc2)sc2ccccc12` [Example 9, 2-(4-Trifluoromethylphenyl)-4H-1,3-benzothiazin-4-one] registered a melting point of 122.5 to 122.6 °C. Further, the minimal effective concentration in data set [1] is 0.088 µM. For the compound `CC(=O)c1ccc(-c2nc(=O)c3ccccc3s2)cc1` [Example 10, 2-(4-Acetylphenyl)-4H-1,3-benzothiazin-4-one], the melting point is 197.5 to 197.6 °C. In data set [1], the minimal effective concentration was found to be 0.062 µM. The compound `O=c1nc(-c2cccc(Br)c2)sc2ccccc12` [Example 11, 2-(3-Bromophenyl)-4H-1,3-benzothiazin-4-one] registered a melting point of 161.6 to 161.7 °C. Turning to `O=c1nc(-c2ccc(O)cc2)sc2ccccc12` [Example 12, 2-(4-Hydroxyphenyl)-4H-1,3-benzothiazin-4-one], the melting point was 275 °C (dec.).

With `CC(=O)Nc1cccc(-c2nc(=O)c3ccccc3s2)c1` [Example 13, N-[3-(4-Oxo-4H-1,3-benzothiazin-2-yl)phenyl]acetamide], the minimal effective concentration in data set [1] came to 0.062 µM. Compound `CC(=O)Nc1ccc(-c2nc(=O)c3ccccc3s2)cc1` [Example 16, N-[4-(4-Oxo-4H-1,3-benzothiazin-2-yl)phenyl]acetamide] registered a melting point of 231.4 to 231.5 °C. In addition, the minimal effective concentration in data set [1] was found to be 0.021 µM. Take `O=c1nc(-c2ccc(-c3ccccc3)cc2)sc2ccccc12` [Example 18, 2-(1,1′-Biphenyl-4-yl)-4H-1,3-benzothiazin-4-one]: in data set [1], the minimal effective concentration was determined as 0.083 µM.

Regarding `O=c1nc(-c2ccccc2C(F)(F)F)sc2ccccc12` [Example 19, 2-(2-Trifluoromethylphenyl)-4H-1,3-benzothiazin-4-one], the melting point lay in the range of 139.6 to 139.8 °C. `O=c1nc(-c2cccc(C(F)(F)F)c2)sc2ccccc12` [Example 20, 2-(3-Trifluoromethylphenyl)-4H-1,3-benzothiazin-4-one] yielded a melting point of 114.6 to 114.7 °C. In data set [2], this compound displayed an EC200 of 1.5 µM. Turning to `COC(=O)c1cccc(-c2nc(=O)c3ccccc3s2)c1` [Example 21, Methyl 3-(4-oxo-4H-1,3-benzothiazin-2-yl)benzoate], the melting point was in the range of 164.3 to 164.4 °C.

For the compound `COC(=O)C(Cc1cccc(-c2nc(=O)c3ccccc3s2)c1)NC(=O)c1ccccc1` (centres unmarked) [Example 22, Methyl 2-(benzoylamino)-3-[3-(4-oxo-4H-1,3-benzothiazin-2-yl)phenyl]propionate], the melting point is 130.9 to 131 °C.

In the case of `Cc1cc(Cl)ccc1-c1nc(=O)c2ccccc2s1` [compound 14, 2-(4-Chloro-2-methylphenyl)-4H-1,3-benzothiazin-4-one], the melting point lay within 134.1 to 134.2 °C. Compound `CCNc1cc(-c2nc(=O)c3ccccc3s2)ccc1C(=O)OC` [compound 15, Methyl 2-(ethylamino)-4-(4-oxo-4H-1,3-benzothiazin-2-yl)benzoate] yielded a melting point of 170.8 to 178.2 °C.

Broadly, the melting point is the temperature, or range, at which the solid turns liquid.
